Assay results: patent US9695155B2, “Herbicidal substituted pyrimidinyloxy benzene compounds” (E. I. DU PONT DE NEMOURS AND COMPANY, priority 2013, dated 2017)

Tests used:
kochia = test: Test C preemergence; format: in vivo, Kochia scoparia; settings: for Kochia plant response rating: preemergence, scale 0 (no effect) to 100 (complete control)
From the text: (§1) Seeds of plant species selected from blackgrass (Alopecurus myosuroides), Italian ryegrass (Lolium multiflorum), wheat, winter (winter wheat, Triticum aestivum), galium (catchweed bedstraw, Galium aparine), corn (Zea mays), large (Lg) crabgrass (Digitaria sanguinalis), giant foxtail (Setaria faberii), johnsongrass (Sorghum halepense), lambsquarters (Chenopodium album), morningglory (Ipomoea coccinea), yellow nutsedge (Cyperus esculentus), pigweed (Amaranthus retroflexus), ragweed (common ragweed, Ambrosia elatior), soybean (Glycine max), barnyardgrass (Echinochloa crus-galli), oilseed rape (Brassica napus), waterhemp (common waterhemp, Amaranthus rudis), kochia (Kochia scoparia), wild oat (Avena fatua), surinam grass (Brachiaria decumbens), foxtail, green (green foxtail, Setaria viridis), goosegrass (Eleusine indica), bromegrass, downy (downy bromegrass, Bromus tectorum), nightshade (eastern black nightshade, Solanum ptycanthum), cocklebur (common cocklebur, Xanthium strumarium), cupgrass, woolly (woolly cupgrass, Eriochloa villosa), bermudagrass (Cynodon dactylon), sunflower, (common oilseed sunflower, Helianthus annuus), Russian thistle (Salsola kali), and velvetleaf (Abutilon theophrasti) were planted into a blend of loam soil and sand and treated preemergence with test chemicals formulated in a non-phytotoxic solvent mixture which included a surfactant.
(§2) At the same time, plants selected from these crop and weed species and also barley, winter (winter barley, Hordeum vulgare), windgrass (Apera spica-venti), chickweed (common chickweed, Stellaria media), deadnettle (henbit deadnettle, Lamium amplexicaule), and canarygrass (littleseed canarygrass, Phalaris minor) were planted in pots containing Redi-Earth® planting medium (Scotts Company, 14111 Scottslawn Road, Marysville, Ohio 43041) comprising spaghnum peat moss, vermiculite, wetting agent and starter nutrients and treated with postemergence applications of test chemicals formulated in the same manner. Plants ranged in height from 2 to 18 cm (1- to 4-leaf stage) for postemergence treatments. Treated plants and controls were maintained in a greenhouse for 13 to 15 days, after which time all species were compared to controls and visually evaluated. Plant response ratings, summarized in Table C, are based on a scale of 0 to 100 where 0 is no effect and 100 is complete control. A dash (-) response means no test result.

surinam grass = test: Test C preemergence; format: in vivo, Brachiaria decumbens; settings: for Surinam Grass plant response rating: preemergence, scale 0 (no effect) to 100 (complete control)
From the text: as §1, §2

foxtail, green = test: Test C preemergence; format: in vivo, Setaria viridis; settings: for Foxtail, Green plant response rating: preemergence, scale 0 (no effect) to 100 (complete control)
From the text: as §1, §2

goosegrass [1] = test: Test C preemergence; format: in vivo, Eleusine indica; settings: for Goosegrass plant response rating: preemergence, scale 0 (no effect) to 100 (complete control)
From the text: as §1, §2

nightshade = test: Test C preemergence; format: in vivo, Solanum ptycanthum; settings: for Nightshade plant response rating: preemergence, scale 0 (no effect) to 100 (complete control)
From the text: as §1, §2

sunflower = test: Test C preemergence; format: in vivo, Helianthus annuus; settings: for Sunflower plant response rating: preemergence, scale 0 (no effect) to 100 (complete control)
From the text: as §1, §2

goosegrass [2] = test: Test C postemergence; format: in vivo, Eleusine indica; settings: for Plant response rating (0 to 100), Goosegrass: postemergence; for Plant response rating, Goosegrass: Postemergence, scale 0 to 100 (0 no effect, 100 complete control)
Procedure, shortened: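 Preemergence: seeds sown in a loam soil–sand blend and sprayed with test chemical in a non-phytotoxic solvent mixture containing surfactant. Postemergence: plants at 2 to 18 cm (1- to 4-leaf stage) in peat-based medium, treated with the same formulation. Greenhouse 13 to 15 days, then visual rating 0 (no effect) to 100 (complete control).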

bromegrass, downy = test: Test C postemergence; format: in vivo, Bromus tectorum; settings: for Plant response rating (0 to 100), Bromegrass, Downy: postemergence; for Plant response rating, Bromegrass, Downy: Postemergence, scale 0 to 100 (0 no effect, 100 complete control)
From the text: as §1, §2

windgrass = test: Test C postemergence; format: in vivo, Apera spica-venti; settings: for Plant response rating (0 to 100), Windgrass: postemergence; for Plant response rating, Windgrass: Postemergence, scale 0 to 100 (0 no effect, 100 complete control)
From the text: as §1, §2

palmer pigweed = test: Test E postemergence; format: in vivo, Amaranthus palmeri; settings: post-emergence, read-out: Plant response rating, Pigweed, Palmer
Procedure, shortened: (§3)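 Test chemicals formulated in a non-phytotoxic solvent mixture containing a surfactant were applied preemergence to seeds in silt loam soil or postemergence to plants at the 1- to 4-leaf stage in potting mix. After 14 to 21 days in a greenhouse, injury was visually rated against controls on a 0-100 scale (0 = no effect, 100 = complete control).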

[3] = tested on: waterhemp_RES1 (ALS & Triazine resistant common waterhemp); test: Test E postemergence; format: in vivo, Amaranthus rudis
Procedure, shortened: as §3

[4] = Preemergence, 31 g ai/ha, scale 0 to 100, 0 no effect, 100 complete control
[5] = Postemergence, 31 g ai/ha, scale 0 to 100
[6] = Postemergence, 62 g ai/ha, scale 0 to 100
[7] = Postemergence, 125 g ai/ha, scale 0 to 100
[8] = postemergence, 8 g ai/ha, scale 0 to 100, 0 no effect, 100 complete control
[9] = postemergence, 16 g ai/ha, scale 0 to 100, 0 no effect, 100 complete control

Clc1cnc(Oc2ccccc2-n2cc(Br)cn2)nc1 [Compound 7, 2-[2-(4-bromo-1H-pyrazol-1-yl)phenoxy]-5-chloropyrimidine]
Kochia plant response rating (kochia; 62 g ai/ha): 95 | Kochia plant response rating (kochia; 125 g ai/ha): 100 | Kochia plant response rating (kochia; 250 g ai/ha): 100 | Plant response rating, Kochia (kochia; [4]): 55 | Surinam Grass plant response rating (surinam grass; 62 g ai/ha): 5 | Surinam Grass plant response rating (surinam grass; 125 g ai/ha): 30 | Surinam Grass plant response rating (surinam grass; 250 g ai/ha): 85 | Plant response rating, Surinam Grass (surinam grass; [4]): 0 | Foxtail, Green plant response rating (foxtail, green; 62 g ai/ha): 90 | Foxtail, Green plant response rating (foxtail, green; 125 g ai/ha): 90 | Foxtail, Green plant response rating (foxtail, green; 250 g ai/ha): 95 | Plant response rating, Foxtail, Green (foxtail, green; [4]): 50 | Goosegrass plant response rating (goosegrass [1]; 62 g ai/ha): 85 | Goosegrass plant response rating (goosegrass [1]; 125 g ai/ha): 95 | Goosegrass plant response rating (goosegrass [1]; 250 g ai/ha): 100 | Plant response rating, Goosegrass (goosegrass [1]; [4]): 65 | Nightshade plant response rating (nightshade; 62 g ai/ha): 95 | Nightshade plant response rating (nightshade; 125 g ai/ha): 95 | Nightshade plant response rating (nightshade; 250 g ai/ha): 98 | Plant response rating, Nightshade (nightshade; [4]): 80 | Sunflower plant response rating (sunflower; 62 g ai/ha): 10 | Sunflower plant response rating (sunflower; 125 g ai/ha): 10 | Sunflower plant response rating (sunflower; 250 g ai/ha): 10 | Plant response rating, Sunflower (sunflower; [4]): 0 | Plant response rating (0 to 100), Goosegrass (goosegrass [2]; 125 g ai/ha): 15 | Plant response rating (0 to 100), Goosegrass (goosegrass [2]; 250 g ai/ha): 15 | Plant response rating, Goosegrass (goosegrass [2]; 31 g ai/ha, 13 to 15 days): 0 | Plant response rating, Goosegrass (goosegrass [2]; 62 g ai/ha): 5 | Plant response rating (0 to 100), Bromegrass, Downy (bromegrass, downy; 125 g ai/ha): 10 | Plant response rating (0 to 100), Bromegrass, Downy (bromegrass, downy; 250 g ai/ha): 10 | Plant response rating, Bromegrass, Downy (bromegrass, downy; 31 g ai/ha, 13 to 15 days): 5 | Plant response rating, Bromegrass, Downy (bromegrass, downy; 62 g ai/ha): 5 | Plant response rating (0 to 100), Windgrass (windgrass; 125 g ai/ha): 55 | Plant response rating (0 to 100), Windgrass (windgrass; 250 g ai/ha): 80 | Plant response rating, Windgrass (windgrass; 31 g ai/ha, 13 to 15 days): 10 | Plant response rating, Windgrass (windgrass; 62 g ai/ha): 55 | pest or weed control at 31 g/ha (palmer pigweed; [5]): 50% | pest or weed control at 62 g/ha (palmer pigweed; [6]): 75% | pest or weed control at 125 g/ha (palmer pigweed; [7]): 85% | pest or weed control at 8 g/ha (palmer pigweed; [8]): 40% | pest or weed control at 16 g/ha (palmer pigweed; [9]): 60% | Plant response rating, Waterhemp_RES1 [3, 5]: 80 | Plant response rating, Waterhemp_RES1 [3, 6]: 95 | Plant response rating, Waterhemp_RES1 [3, 7]: 90 | Plant response rating, Waterhemp_RES1 [3, 8]: 65 | Plant response rating, Waterhemp_RES1 [3, 9]: 70
